Test results: PubChem BioAssay AID330 (DTP/NCI, 2004)
“And” between values parts separate entries of the source, which are not always exact repeats. Equal entries are not always repeated. Toxic doses and inconclusive results are not listed. How the source made its calls: active means survival T/C of 150% or more; inactive means T/C below 125% in these data.

System: P388 leukemia ip, CD2F1 mice, survival T/C
Assay: NCI In Vivo Anticancer Drug Screen. Data for tumor model P388 Leukemia (intraperitoneal) in CD2F1 (CDF1) mice
Conditions: endpoint: median survival time, higher = longer survival
Summary of the method: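 Mice carrying the transplanted tumor received test compound or vehicle. Survival was recorded in each group, and the value is the treated-group measurement divided by that of the vehicle-treated control group.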

[1] = dose: 60.0 mg/kg/injection, schedule: Q01DX005 (ip), vehicle: saline with Tween-80
[2] = dose: 120.0 mg/kg/injection, schedule: Q01DX005 (ip), vehicle: saline with Tween-80
[3] = dose: 240.0 mg/kg/injection, schedule: Q01DX005 (ip), vehicle: saline with Tween-80
[4] = dose: 50.0 mg/kg/injection, schedule: Q01DX005 (ip), vehicle: saline with Tween-80
[5] = dose: 100.0 mg/kg/injection, schedule: Q01DX005 (ip), vehicle: saline with Tween-80
[6] = dose: 200.0 mg/kg/injection, schedule: Q01DX005 (ip), vehicle: saline with Tween-80
[7] = dose: 100.0 mg/kg/injection, schedule: Q04DX003 (ip), vehicle: saline
[8] = dose: 200.0 mg/kg/injection, schedule: Q04DX003 (ip), vehicle: saline
[9] = dose: 50.0 mg/kg/injection, schedule: Q01DX009 (ip), vehicle: saline with Tween-80
[10] = dose: 100.0 mg/kg/injection, schedule: Q01DX009 (ip), vehicle: saline with Tween-80
[11] = dose: 200.0 mg/kg/injection, schedule: Q01DX009 (ip), vehicle: saline with Tween-80
[12] = dose: 25.0 mg/kg/injection, schedule: Q01DX009 (ip), vehicle: water
[13] = dose: 25.0 mg/kg/injection, schedule: Q01DX005 (ip), vehicle: saline with Tween-80

Measured: T/C

CCN(CC)c1ccc(NCS(=O)(=O)O)cc1
inactive: dose: 50.0 mg/kg/injection, schedule: Q04DX003 (ip), vehicle: saline sonified 95 % of control | dose: 100.0 mg/kg/injection, schedule: Q04DX003 (ip), vehicle: saline sonified 90 % of control | dose: 200.0 mg/kg/injection, schedule: Q04DX003 (ip), vehicle: saline sonified 100 % of control

O=[N+]([O-])c1cccc(S(=O)(=O)N/N=C/c2cc([N+](=O)[O-])cc(I)c2O)c1
inactive: [1] 103 % of control | [2] 95 % of control | [3] 111 % of control

CCCCC[C@@H]1CCCC2C1CCC(CCCCCO)N2C(=O)OCC(Cl)(Cl)Cl (some centres undefined)
inactive: [4] 100 % of control | [5] 106 % of control | [6] 100 % of control

CC(C)(CN1CCCN(CC(C)(C)C(=O)O)C1=O)C(=O)O
inactive: dose: 50.0 mg/kg/injection, schedule: Q01DX009 (ip), vehicle: saline 93 % of control | dose: 100.0 mg/kg/injection, schedule: Q01DX009 (ip), vehicle: saline 94 % of control | dose: 200.0 mg/kg/injection, schedule: Q01DX009 (ip), vehicle: saline 98 % of control

C=CCC(O)CC1CC2CCCCN2O1 (centres undefined)
inactive: dose: 50.0 mg/kg/injection, schedule: Q04DX003 (ip), vehicle: saline 104 % of control | [7] 104 % of control | [8] 99 % of control

c1cc2cc(c1)CSCc1cccc(c1)CSCc1cccc(c1)CSC2
inactive: dose: 50.0 mg/kg/injection, schedule: Q04DX002 (ip), vehicle: saline 96 % of control | dose: 100.0 mg/kg/injection, schedule: Q04DX002 (ip), vehicle: saline 93 % of control | dose: 200.0 mg/kg/injection, schedule: Q04DX002 (ip), vehicle: saline 93 % of control

O=C1c2ccccc2C(=O)c2c(Nc3cccc(S(=O)(=O)N(CCO)CCO)c3)ccc(O)c21
inactive: dose: 25.0 mg/kg/injection, schedule: Q04DX002 (ip), vehicle: saline with Tween-80 99 % of control | dose: 50.0 mg/kg/injection, schedule: Q04DX002 (ip), vehicle: saline with Tween-80 93 % of control | dose: 100.0 mg/kg/injection, schedule: Q04DX002 (ip), vehicle: saline with Tween-80 92 % of control | dose: 200.0 mg/kg/injection, schedule: Q04DX002 (ip), vehicle: saline with Tween-80 93 % of control

CCOC(=O)CC(C)(O)C1CC1 (centres undefined)
inactive: dose: 25.0 mg/kg/injection, schedule: Q01DX009 (ip), vehicle: Klucel (hydroxypropylcellulose) (HPC) 96 % of control | dose: 50.0 mg/kg/injection, schedule: Q01DX009 (ip), vehicle: Klucel (hydroxypropylcellulose) (HPC) 101 % of control | dose: 100.0 mg/kg/injection, schedule: Q01DX009 (ip), vehicle: Klucel (hydroxypropylcellulose) (HPC) 105 % of control and 94 % of control | dose: 200.0 mg/kg/injection, schedule: Q01DX009 (ip), vehicle: Klucel (hydroxypropylcellulose) (HPC) 103 % of control and 122 % of control

COC1/C=C/OC2(C)Oc3c(C)c(O)c4c(O)c(c(/C=N/N5C(C)CN(Cc6ccc(C)cc6)CC5C)c(O)c4c3C2=O)NC(=O)C(C)=C/C=C/C(C)C(O)C(C)C(O)C(C)C(OC(C)=O)C1C (centres undefined)
inactive: [9] 97 % of control | [10] 96 % of control | [11] 103 % of control

N=C(N)c1ccc(OCCCCOc2ccc(N)cc2Cl)cc1
inactive: dose: 30.0 mg/kg/injection, schedule: Q01DX005 (ip), vehicle: saline with Tween-80 102 % of control | [1] 106 % of control and 97 % of control | [2] 105 % of control

CC(C)(C)C(=O)Nc1ccc2c(c1)C(=O)c1ccccc1C2=O
inactive: [4] 100 % of control | [5] 87 % of control | [6] 89 % of control

C/C(=N\O)c1ccccn1
inactive: [12] 100 % of control | dose: 50.0 mg/kg/injection, schedule: Q01DX009 (ip), vehicle: water 98 % of control | dose: 100.0 mg/kg/injection, schedule: Q01DX009 (ip), vehicle: water 98 % of control | dose: 200.0 mg/kg/injection, schedule: Q01DX009 (ip), vehicle: water 100 % of control | dose: 400.0 mg/kg/injection, schedule: Q01DX009 (ip), vehicle: water 106 % of control

COC(=O)c1cc(=O)n2cnc3c(ncn3C3OC(CO)C(O)C3O)c2c1 (centres undefined)
inactive: [7] 98 % of control | [8] 100 % of control | dose: 400.0 mg/kg/injection, schedule: Q04DX003 (ip), vehicle: saline 100 % of control

CC(=O)Nc1[nH]ncc1C#N
inactive: [1] 98 % of control | [2] 107 % of control | [3] 101 % of control

c1ccc(P23(Oc4ccccc4S2)Oc2ccccc2S3)cc1
inactive: dose: 100.0 mg/kg/injection, schedule: Q04DX003 (ip), vehicle: Klucel (hydroxypropylcellulose) (HPC) 93 % of control | dose: 200.0 mg/kg/injection, schedule: Q04DX003 (ip), vehicle: Klucel (hydroxypropylcellulose) (HPC) 90 % of control | dose: 400.0 mg/kg/injection, schedule: Q04DX003 (ip), vehicle: Klucel (hydroxypropylcellulose) (HPC) 91 % of control

CSc1nc(NC2OC(COC(C)=O)C(OC(C)=O)C(OC(C)=O)C2OC(C)=O)c(N=C(C)C(C)=O)c(=O)[nH]1 (centres undefined)
inactive: [1] 100 % of control | [2] 96 % of control | [3] 86 % of control

COc1cc(C)c2[nH]c3c(C)c(Cl)ccc3c(=O)c2c1
inactive: dose: 50.0 mg/kg/injection, schedule: Q01DX005 (ip), vehicle: Klucel + Tween-80 97 % of control | dose: 100.0 mg/kg/injection, schedule: Q01DX005 (ip), vehicle: Klucel + Tween-80 93 % of control | dose: 200.0 mg/kg/injection, schedule: Q01DX005 (ip), vehicle: Klucel + Tween-80 96 % of control

CC1OC(OCc2ccc(-c3ccccc3)cc2)CC(N)C1O (centres undefined)
inactive: dose: 1.56 mg/kg/injection, schedule: Q01DX009 (ip), vehicle: water 99 % of control | dose: 3.13 mg/kg/injection, schedule: Q01DX009 (ip), vehicle: water 104 % of control | dose: 6.25 mg/kg/injection, schedule: Q01DX009 (ip), vehicle: water 107 % of control | dose: 12.5 mg/kg/injection, schedule: Q01DX009 (ip), vehicle: water 108 % of control | [12] 98 % of control

CCN(CC)CCCC(C)Sc1ccnc2cc(Cl)ccc12 (centres undefined)
inactive: [4] 95 % of control | [5] 101 % of control | [6] 106 % of control

CCn1cc(C(=O)O)c(=O)c2cnc(N3CCCC3)nc21
inactive: [9] 90 % of control | [10] 99 % of control | [11] 92 % of control

CSc1nnc(C2CCC(=O)N2Cc2ccccc2)o1 (centres undefined)
inactive: dose: 60.0 mg/kg/injection, schedule: Q01DX005 (ip), vehicle: saline 105 % of control | dose: 120.0 mg/kg/injection, schedule: Q01DX005 (ip), vehicle: saline 102 % of control | dose: 240.0 mg/kg/injection, schedule: Q01DX005 (ip), vehicle: saline 104 % of control

C/C(=N/NC(N)=O)c1ccc2c3c(cc(Br)c2c1)CCCC3
inactive: dose: 6.25 mg/kg/injection, schedule: Q01DX005 (ip), vehicle: saline with Tween-80 99 % of control | dose: 12.5 mg/kg/injection, schedule: Q01DX005 (ip), vehicle: saline with Tween-80 99 % of control | [13] 95 % of control | [4] 91 % of control

C=C1C(=O)OC2/C=C(/CO)CC/C=C(/C=O)CC(O)C12 (centres undefined)
inactive: dose: 1.89 mg/kg/injection, schedule: Q01DX005 (ip), vehicle: saline + Tween-80 + alcohol 101 % of control | dose: 3.75 mg/kg/injection, schedule: Q01DX005 (ip), vehicle: saline + Tween-80 + alcohol 100 % of control | dose: 7.5 mg/kg/injection, schedule: Q01DX005 (ip), vehicle: saline + Tween-80 + alcohol 101 % of control | dose: 15.0 mg/kg/injection, schedule: Q01DX005 (ip), vehicle: saline + Tween-80 + alcohol 99 % of control

Cc1ccc(C(=N)c2ccccc2Cc2cccc3ccccc23)c(C)c1
inactive: [9] 92 % of control | [10] 94 % of control | [11] 96 % of control

COc1c(C)cc([N+](=O)[O-])c(C)c1[N+](=O)[O-]
inactive: dose: 50.0 mg/kg/injection, schedule: Q01DX001 (ip), vehicle: Klucel (hydroxypropylcellulose) (HPC) 92 % of control | dose: 100.0 mg/kg/injection, schedule: Q01DX001 (ip), vehicle: Klucel (hydroxypropylcellulose) (HPC) 93 % of control | dose: 200.0 mg/kg/injection, schedule: Q01DX001 (ip), vehicle: Klucel (hydroxypropylcellulose) (HPC) 90 % of control

S=c1sc2ccccc2n1CN1CCOCC1
inactive: [13] 107 % of control | [4] 104 % of control and 114 % of control | [5] 121 % of control and 124 % of control

CC(=O)CC1C=CCC(CC(O)c2ccccc2)N1C (centres undefined)
inactive: dose: 12.5 mg/kg/injection, schedule: Q01DX005 (ip), vehicle: saline 100 % of control | dose: 25.0 mg/kg/injection, schedule: Q01DX005 (ip), vehicle: saline 105 % of control | dose: 50.0 mg/kg/injection, schedule: Q01DX005 (ip), vehicle: saline 105 % of control
